Assays:
Na^+K^+ATPase = assay: Stimulation of Na+K+ATPase activity of rat renal tubule cells (microdissected proximal convoluted tubules, 32P-ATP with or without ouabain); format: cell-based; details: for activity of peptides containing D-amino acid isomers (in words): Na^+K^+ATPase of rat renal tubule segments; for relative stimulatory activity on Na^+K^+ATPase activity: 5-10^−7 M peptide, rat C-peptide 1 at the same concentration set at 100%, tubules incubated 30 minutes at room temperature; for stimulation of Na^+K^+ATPase activity compared with whole C-peptide (in words): renal tubule cells in vitro
Experimental: Fragments of the invention have been proven to stimulate Na^+K^+ATPase activity to varying extent. […] As much as 90% of the effect is achieved within 3 minutes. […] Combinations of Peptides A-D with Peptides E or F result in a stimulation of the enzyme activity that is greater than that for either peptide alone. For detailed examples of the stimulatory effects of the above peptides, see Example 1, below.
In the case of peptide A certain studies on Na^+K^+ATPase activity, studying the ability of the peptide fragments to stimulate the activity of Na^+K^+ATPase of rat renal tubule segments, have shown that one or more of the central tri-glycine residues may be important, and preferred peptide fragments, where peptide A is concerned, thus include at least one, and more preferably, at least two, of the central tri-glycine residues. Thus, in addition to peptides B, C and D mentioned above, representative exemplary peptide fragments include GGGPGAG (SEQ ID NO. 8), GGGPG (SEQ ID No. 9), GGGP (SEQ ID NO. 10), GGP and GGPG (SEQ ID NO. 11).
The stimulatory effect of Peptides A-F on Na^+K^+ATPase activity of rat renal tubule cells was examined. Single proximal convoluted tubules were prepared from rat kidneys by micro-dissection. The tubules were incubated for 30 minutes at room temperature with either of Peptides A-F or rat C-peptide 1. Na^+K^+ATPase activity was then measured following exposure of the tubules to hypotonic shock and incubation for 15 minutes in a medium containing ^32P-ATP in the presence or absence of oubain.
The stimulatory activity of 5-10^−7 M rat C-peptide 1 was set at 100%. For the same concentration of Peptides A-F the following relative activities were obtained: […]

[1] = test system: cell surface of human renal tubule cells (C-peptide binding site); assay: Binding of rhodamine-labelled C-peptide to cultured human renal tubule cells, by fluorescence correlation spectroscopy; details: for effect of preincubation on binding of fluorescently labelled C-peptide (in words): preincubation of cells with the unlabelled peptide
Experimental: When fluorescently labelled C-peptide is incubated with cells it binds to the cell surface. […] For a detailed example of the binding of Fragment E see Example 28, below.
The specific binding of Peptide E to the cell surface is illustrated as follows. Human biosynthetic C-peptide (Eli-Lilly, Inc., Indianapolis, USA) was labelled with tetramethylrhodamine using the activated reagent tetramethylrhodamine succinimidyl ester (FluoReporter® Protein labelling kit, Art. no. F-6163; Molecular Probes Europe BV, Leiden, Netherlands). The coupling reaction was performed at pH 8.3 (0.1 M NaHCO3 buffer) with a five-fold stoichiometrical excess of activated reagent to C-peptide. The tetramethylrhodamine group has absorption/emission maxima at 555/580 nm, respectively and is incorporated in the N-terminus of the C-peptide. Labelled C-peptides were purified by gel filtration (desalting against 50 mM phosphate buffer, 0.1 M NaCl, pH 7.4) on a NAP-5 column; Pharmacia Biotech Uppsala, Sweden) and subsequently by preparative reverse phase chromatography (250 mm Kromasil C8 column, diam. 4.6 mm, 7 μm particle size, 10 nm pore size, Eka-Nobel, Surte, Sweden) using a 1090 Hewlett Packard HPLC chromatography system (Grenoble, France) (FIG. 1). Eluted material was immediately adjusted to pH 8 by addition of ammonia and subsequently lyophilized.
Cultured human renal tubule cells (proximal convoluted tubules, PCT) were incubated with the rhodamine labelled C-peptide synthesized as described above. The cells were prepared from the healthy part of a human kidney removed surgically because of hypernephroma. The outer 150 μm of the renal cortex was removed in a microtome and incubated in a collagenase solution (0.05%) at 37° C. for 15 minutes. A tissue suspension was centrifuged and rinsed twice with 0.01% soybean trypsin inhibitor-solution (Gibco Laboratories, Grand Island, N.Y., USA) and a concentrate of PCT fragments and PCT cells were plated onto glass cover slips. The cells were cultured in Dulbecco's Modified Eagle's Medium [DMEM, 20 mmol/l 4-(2-hydroxyethyl)-1-piperazineethane sulphoric acid (Hepes), 24 mmol/l NaHCO3 50,000 IU/l penicillin and 50 mg/l streptomycin, pH 7.4] with 10% fetal bovine serum (Gibco) in an incubator at 37° C. with 95% O2, and 5% CO2. After 28 hours in culture the medium was changed to DMEM with 1% fetal bovine serum. The cells were examined approximately 18-36 hours later.
The interaction between C-peptide and the cell surface of the tubule cells was recorded using fluorescence correlation spectroscopy (11). […] In contrast, when the cells were preincubated with 5 μM of Peptide E, C-peptide binding after 50 minutes was no more than 12%.

Substance	effect of preincubation on binding of fluorescently labelled C-peptide (in words) [1]	relative stimulatory activity on Na^+K^+ATPase activity (Na^+K^+ATPase) [%]	other results
D,L-LG	–	–	activity of peptides containing D-amino acid isomers (in words) (Na^+K^+ATPase): active
D-LG	–	–	activity of peptides containing D-amino acid isomers (in words) (Na^+K^+ATPase): active
EAEDLQVGQVELGGGPGAGSLQPLALEGSLQ (N-terminal tetramethylrhodamine label) [C-peptide, human biosynthetic C-peptide (Eli-Lilly)]	prevents binding of the fluorescently labelled C-peptide	–	C-peptide bound to the cell surface ([1]; C-peptide 5 nM, within 50 minutes, no competitor): 92%
EGSLQ [Peptide E, C-terminal fragment of human insulin C-peptide]	prevent binding of the fluorescently marked C-peptide	110±3	stimulation of Na^+K^+ATPase activity compared with whole C-peptide (in words) (Na^+K^+ATPase): comparable to or greater than that for the whole molecule; C-peptide remaining bound after later addition of the peptide ([1]; C-peptide bound for 50 minutes, then peptide added, within 4 hours): 14%; C-peptide binding after 50 minutes ([1]; cells preincubated with 5 μM of the peptide, C-peptide 5 nM): no more than 12%
ELGG [Peptide B, fragment of Peptide A]	–	36±2	–
ELGGGP [Peptide C, fragment of Peptide A]	–	46±3	–
ELGGGPGAG [Peptide A, fragment of human insulin C-peptide]	–	88±3	–
GGPGA [Peptide D, fragment of Peptide A]	–	65±4	–
GSLQ [Peptide F, fragment of Peptide E]	prevent binding of the fluorescently marked C-peptide	96±2	stimulation of Na^+K^+ATPase activity compared with whole C-peptide (in words) (Na^+K^+ATPase): comparable to or greater than that for the whole molecule

Reference: patent US6610649B2, “Insulin C-peptides” (Creative Peptides Sweden AB, priority 1996, dated 2003)
